Measured values: US11591341B2 (ALIGOS THERAPEUTICS, INC., priority 2019, dated 2023)

Tested on: HBV
Assay: HBV-DNA Antiviral Assay Using HepG2.117 Cells (intracellular HBV DNA by qPCR)
Type: cell-based, hepatitis B virus (genotype D)
Conditions: Hepatitis B virus, HepG2.117
Outline: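 Endpoint: qPCR copy number of intracellular HBV DNA after 3-day compound exposure, with inhibition set relative to the 2% DMSO control. The cells were doxycycline-free HepG2.117 carrying a Tet-off genotype D genome, dosed at nine 4-fold dilutions. A duplicate plate gave ATP-based viability (CC50).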

CC[C@H](NC(=O)c1c2n(c(=O)n1-c1ccc(OC)cc1)CCN(C(=O)c1ccc(Br)c(Cl)c1)C2)c1ccccc1 (stereo in doubt) [Example 151, 7-(4-bromo-3-chloro-benzoyl)-2-(4-methoxyphenyl)-3-oxo-N-[rac-(1S)-1-phenylpropyl]-6,8-dihydro-5H-imidazo[1,5-a]pyrazine-1-carboxamide]
EC50: 100 to 500 nM

COc1ccc(-n2c(C(=O)N[C@H](C)c3ccccc3F)c3n(c2=O)CCN(C(=O)c2ccc(Br)c(Cl)c2)C3)cc1 (stereo in doubt) [Example 161, 7-(4-bromo-3-chloro-benzoyl)-2-(4-methoxyphenyl)-3-oxo-N-[rac-(1R)-1-(2-fluorophenyl)ethyl]-6,8-dihydro-5H-imidazo[1,5-a]pyrazine-1-carboxamide]
EC50: < 100 nM

COc1ccc(-n2c(C(=O)N[C@@H](C)c3ccccc3F)c3n(c2=O)CCN(C(=O)c2ccc(Br)c(Cl)c2)C3)cc1 (stereo in doubt) [Example 162, 7-(4-bromo-3-chloro-benzoyl)-2-(4-methoxyphenyl)-3-oxo-N-[rac-(1S)-1-(2-fluorophenyl)ethyl]-6,8-dihydro-5H-imidazo[1,5-a]pyrazine-1-carboxamide]
EC50: 100 to 500 nM

C[C@H](NC(=O)c1c2n(c(=O)n1-c1ccc(OC3COC3)cc1)CCN(C(=O)c1ccc(Br)c(Cl)c1)C2)c1ccccc1 (stereo in doubt) [Example 169, 7-(4-bromo-3-chloro-benzoyl)-2-[4-(oxetan-3-yloxy)phenyl]-3-oxo-N-[rac-(1S)-1-phenylethyl]-6,8-dihydro-5H-imidazo[1,5-a]pyrazine-1-carboxamide]
EC50: 500 to 5000 nM

C[C@@H](NC(=O)c1c2n(c(=O)n1-c1ccc(OC3COC3)cc1)CCN(C(=O)c1ccc(Br)c(Cl)c1)C2)c1ccccc1 (stereo in doubt) [Example 170, 7-(4-bromo-3-chloro-benzoyl)-2-[4-(oxetan-3-yloxy)phenyl]-3-oxo-N-[rac-(1R)-1-phenylethyl]-6,8-dihydro-5H-imidazo[1,5-a]pyrazine-1-carboxamide]
EC50: 100 to 500 nM

O=C(c1ccc(Br)c(Cl)c1)N1CCn2c(c3n(c2=O)C[C@H](O)CN(Cc2ccccc2)C3=O)C1 (stereo in doubt) [Example 174, rac-(11R)-13-benzyl-4-(4-bromo-3-chloro-benzoyl)-11-hydroxy-4,7,9,13-tetrazatricyclo[7.5.0.0^2,7]tetradec-1-ene-8.14-dione]
EC50: 500 to 5000 nM

O=C(c1ccc(Br)c(Cl)c1)N1CCn2c(c3n(c2=O)C[C@@H](O)CN(Cc2ccccc2)C3=O)C1 (stereo in doubt) [Example 175, rac-(11S)-13-benzyl-4-(4-bromo-3-chloro-benzoyl)-11-hydroxy-4,7,9,13-tetrazatricyclo[7.5.0.0^2,7]tetradec-1-ene-8.14-dione]
EC50: 500 to 5000 nM

C[C@@H](NC(=O)c1c2n(c(=O)n1C1CC1)CCN(C(=O)c1ccc(Br)c(Cl)c1)C2)c1ccccc1 (stereo in doubt) [Example 189, 7-(4-bromo-3-chloro-benzoyl)-2-cyclopropyl-3-oxo-N-[rac-(1R)-1-phenylethyl]-6,8-dihydro-5H-imidazo[1,5-a]pyrazine-1-carboxamide]
EC50: 500 to 5000 nM

C[C@H](NC(=O)c1c2n(c(=O)n1C1CC1)CCN(C(=O)c1ccc(Br)c(Cl)c1)C2)c1ccccc1 (stereo in doubt) [Example 190, 7-(4-bromo-3-chloro-benzoyl)-2-cyclopropyl-3-oxo-N-[rac-(1S)-1-phenylethyl]-6,8-dihydro-5H-imidazo[1,5-a]pyrazine-1-carboxamide]
EC50: 500 to 5000 nM

COc1ccc(CN2C[C@@H](O)Cn3c(c4n(c3=O)CCN(C(=O)c3ccc(Br)c(Cl)c3)C4)C2=O)cc1 (stereo in doubt) [Example 193, rac-(11R)-4-(4-bromo-3-chloro-benzoyl)-11-hydroxy-13-[(4-methoxyphenyl)methyl]-4,7,9,13-tetrazatricyclo[7.5.0.0^2,7]tetradec-1-ene-8,14-dione]
EC50: 100 to 500 nM

COc1ccc(CN2C[C@H](O)Cn3c(c4n(c3=O)CCN(C(=O)c3ccc(Br)c(Cl)c3)C4)C2=O)cc1 (stereo in doubt) [Example 194, rac-(11S)-4-(4-bromo-3-chloro-benzoyl)-11-hydroxy-13-[(4-methoxyphenyl)methyl]-4,7,9,13-tetrazatricyclo[7.5.0.0^2,7]tetradec-1-ene-8,14-dione]
EC50: 100 to 500 nM

O=C(c1ccc(Br)c(Cl)c1)N1CCn2c(c3n(c2=O)C[C@H](F)CN(Cc2ccccc2)C3=O)C1 (stereo in doubt) [Example 200, rac-(11R)-13-benzyl-4-(4-bromo-3-chloro-benzoyl)-11-fluoro-4,7,9,13-tetrazatricyclo[7.5.0.0^2,7]tetradec-1-ene-8,14-dione]
EC50: 100 to 500 nM

O=C(c1ccc(Br)c(Cl)c1)N1CCn2c(c3n(c2=O)C[C@@H](F)CN(Cc2ccccc2)C3=O)C1 (stereo in doubt) [Example 201, rac-(11S)-13-benzyl-4-(4-bromo-3-chloro-benzoyl)-11-fluoro-4,7,9,13-tetrazatricyclo[7.5.0.0^2,7]tetradec-1-ene-8,14-dione]
EC50: 100 to 500 nM

C[C@H](c1ccccc1)N1C[C@@H](O)Cn2c(c3n(c2=O)CCN(C(=O)c2ccc(Br)c(Cl)c2)C3)C1=O (stereo in doubt) [Example 202, (11RS)-4-(4-bromo-3-chloro-benzoyl)-11-hydroxy-13-[(1R)-1-phenylethyl]-4,7,9,13-tetrazatricyclo[7.5.0.0^2,7]tetradec-1-ene-8.14-dione]
EC50: 100 to 500 nM

C[C@H](c1ccccc1)N1C[C@H](O)Cn2c(c3n(c2=O)CCN(C(=O)c2ccc(Br)c(Cl)c2)C3)C1=O (stereo in doubt) [Example 203, (11SR)-4-(4-bromo-3-chloro-benzoyl)-11-hydroxy-13-[(1R)-1-phenylethyl]-4,7,9,13-tetrazatricyclo[7.5.0.0^2,7]tetradec-1-ene-8,14-dione]
EC50: 100 to 500 nM

COc1ccc(-n2c(C(=O)N[C@H](c3ccccc3)C(F)(F)F)c3n(c2=O)CCN(C(=O)c2ccc(Br)c(Cl)c2)C3)cc1 (stereo in doubt) [Example 208, 7-(4-bromo-3-chloro-benzoyl)-2-(4-methoxyphenyl)-3-oxo-N-[rac-(1R)-2,2,2-trifluoro-1-phenyl-ethyl]-6,8-dihydro-5H-imidazo[1,5-a]pyrazine-1-carboxamide]
EC50: 100 to 500 nM

COc1ccc(-n2c(C(=O)N[C@@H](c3ccccc3)C(F)(F)F)c3n(c2=O)CCN(C(=O)c2ccc(Br)c(Cl)c2)C3)cc1 (stereo in doubt) [Example 209, 7-(4-bromo-3-chloro-benozyl)-2-(4-methoxyphenyl)-3-oxo-N-[rac-(1S)-2,2,2-trifluoro-1-phenyl-ethyl]-6,8-dihydro-5H-imidazo[1,5-a]pyrazine-1-carboxamide]
EC50: 100 to 500 nM

CC(C)Oc1ccc(-n2c(C(=O)N[C@H](C)c3ccc(C#N)cc3)c3n(c2=O)CCN(C(=O)c2ccc(Br)c(Cl)c2)C3)cc1 (stereo in doubt) [Example 233, 7-(4-bromo-3-chloro-benzoyl)-2-(4-isopropoxyphenyl)-3-oxo-N-[rac-(1R)-1-(4-cyanophenyl)ethyl]-6,8-dihydro-5H-imidazo[1,5-a]pyrazine-1-carboxamide]
EC50: 100 to 500 nM

CC(C)Oc1ccc(-n2c(C(=O)N[C@@H](C)c3ccc(C#N)cc3)c3n(c2=O)CCN(C(=O)c2ccc(Br)c(Cl)c2)C3)cc1 (stereo in doubt) [Example 234, 7-(4-bromo-3-chloro-benzoyl)-2-(4-isopropoxyphenyl)-3-oxo-N-[rac-(1S)-1-(4-cyanophenyl)ethyl]-6,8-dihydro-5H-imidazo[1,5-a]pyrazine-1-carboxamide]
EC50: 100 to 500 nM

COc1ccc([C@H](C)NC(=O)c2c3n(c(=O)n2-c2ccc(OC(C)C)cc2)CCN(C(=O)c2ccc(Br)c(Cl)c2)C3)c(F)c1 (stereo in doubt) [Example 235, 7-(4-bromo-3-chloro-benzoyl)-2-(4-isopropoxyphenyl)-3-oxo-N-[rac-(1S)-1-(2-fluoro-4-methoxy-phenyl)ethyl]-6,8-dihydro-5H-imidazo[1,5-a]pyrazine-1-carboxamide]
EC50: 100 to 500 nM

C[C@@H](c1ccccc1)N1C[C@@H](O)Cn2c(c3n(c2=O)CCN(C(=O)c2ccc(Br)c(Cl)c2)C3)C1=O (stereo in doubt) [Example 237, (11RS)-2-(4-bromo-3-chloro-benzoyl)-11-hydroxy-13-[(1S)-1-phenylethyl]-4,7,9,13-tetrazatricyclo[7.5.0.0^2,7]tetradec-1-ene-8,14-dione]
EC50: 500 to 5000 nM

C[C@@H](c1ccccc1)N1C[C@H](O)Cn2c(c3n(c2=O)CCN(C(=O)c2ccc(Br)c(Cl)c2)C3)C1=O (stereo in doubt) [Example 238, (11SR)-4-(4-bromo-3-chloro-benzoyl)-11-hydroxy-13-[(1S)-1-phenylethyl]-4,7,9,13-tetrazatricyclo[7.5.0.0^2,7]tetradec-1-ene-8,14-dione]
EC50: 100 to 500 nM

COc1ccc([C@@H](C)NC(=O)c2c3n(c(=O)n2-c2ccc(OC(C)C)cc2)CCN(C(=O)c2ccc(Br)c(Cl)c2)C3)c(F)c1 (stereo in doubt) [Example 245, 7-(4-bromo-3-chloro-benzoyl)-2-(4-isopropoxyphenyl)-3-oxo-N-[rac-(1R)-1-(2-fluoro-4-methoxy-phenyl)ethyl]-6,8-dihydro-5H-imidazo[1,5-a]pyrazine-1-carboxamide]
EC50: < 100 nM

COc1ccc(-n2c(C(=O)N[C@@H](c3ccccc3)C(F)F)c3n(c2=O)CCN(C(=O)c2ccc(Br)c(Cl)c2)C3)cc1 (stereo in doubt) [Example 252, 7-(4-bromo-3-chloro-benzoyl)-2-(4-methoxyphenyl)-3-oxo-N-[rac-(1S)-2,2-difluoro-1-phenyl-ethyl]-6,8-dihydro-5H-imidazo[1,5-a]pyrazine-1-carboxamide]
EC50: 100 to 500 nM
